Reference: PMC6934184, “Selective DNA-PKcs inhibition extends the therapeutic index of localized radiotherapy and chemotherapy” (The Journal of Clinical Investigation, 2019)

Target: T1, PIK3CA/PIK3R1 (p110α/p85α) (Homo sapiens, UniProt P42336)
T1 construct: purchased Thermo Fisher Scientific (Life Technologies) SelectScreen
Assay: SelectScreen Adapta
Format: biochemical
How it was run: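 Percent values come from Thermo SelectScreen profiling of NU5455, combining activity and binding assays. CSF1R was run in Z'LYTE format at Km app ATP, and CAMK1 in Adapta format with ATP listed at 10.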

T1 sequence (P42336 whole entry): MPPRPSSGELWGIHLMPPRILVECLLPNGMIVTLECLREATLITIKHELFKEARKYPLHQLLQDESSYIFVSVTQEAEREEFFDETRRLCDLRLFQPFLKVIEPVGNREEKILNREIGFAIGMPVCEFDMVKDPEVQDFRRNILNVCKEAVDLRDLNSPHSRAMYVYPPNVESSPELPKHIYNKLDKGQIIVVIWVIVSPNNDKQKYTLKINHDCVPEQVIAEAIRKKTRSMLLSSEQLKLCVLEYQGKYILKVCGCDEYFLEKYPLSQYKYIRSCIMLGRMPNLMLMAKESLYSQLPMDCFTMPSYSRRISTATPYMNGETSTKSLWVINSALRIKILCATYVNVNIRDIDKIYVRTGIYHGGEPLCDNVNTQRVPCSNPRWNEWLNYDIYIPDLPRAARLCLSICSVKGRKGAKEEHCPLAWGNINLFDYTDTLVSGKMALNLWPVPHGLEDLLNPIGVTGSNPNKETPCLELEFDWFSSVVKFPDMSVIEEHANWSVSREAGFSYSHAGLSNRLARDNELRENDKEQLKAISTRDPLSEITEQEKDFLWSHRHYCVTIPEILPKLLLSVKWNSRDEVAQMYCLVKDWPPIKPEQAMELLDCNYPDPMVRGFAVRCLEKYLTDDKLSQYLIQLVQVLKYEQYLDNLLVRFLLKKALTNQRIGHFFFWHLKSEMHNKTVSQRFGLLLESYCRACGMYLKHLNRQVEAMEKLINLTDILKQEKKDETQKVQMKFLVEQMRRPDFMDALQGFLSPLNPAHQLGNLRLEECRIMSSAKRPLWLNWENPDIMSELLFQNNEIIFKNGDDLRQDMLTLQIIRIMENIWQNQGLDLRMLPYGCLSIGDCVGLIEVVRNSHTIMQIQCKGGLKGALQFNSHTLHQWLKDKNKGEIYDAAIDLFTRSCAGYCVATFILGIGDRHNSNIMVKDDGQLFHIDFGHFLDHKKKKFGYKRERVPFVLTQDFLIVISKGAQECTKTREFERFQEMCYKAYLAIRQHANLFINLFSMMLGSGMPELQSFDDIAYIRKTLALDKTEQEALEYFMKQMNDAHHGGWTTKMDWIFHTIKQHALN
T1 sequence (P27986 whole entry partner): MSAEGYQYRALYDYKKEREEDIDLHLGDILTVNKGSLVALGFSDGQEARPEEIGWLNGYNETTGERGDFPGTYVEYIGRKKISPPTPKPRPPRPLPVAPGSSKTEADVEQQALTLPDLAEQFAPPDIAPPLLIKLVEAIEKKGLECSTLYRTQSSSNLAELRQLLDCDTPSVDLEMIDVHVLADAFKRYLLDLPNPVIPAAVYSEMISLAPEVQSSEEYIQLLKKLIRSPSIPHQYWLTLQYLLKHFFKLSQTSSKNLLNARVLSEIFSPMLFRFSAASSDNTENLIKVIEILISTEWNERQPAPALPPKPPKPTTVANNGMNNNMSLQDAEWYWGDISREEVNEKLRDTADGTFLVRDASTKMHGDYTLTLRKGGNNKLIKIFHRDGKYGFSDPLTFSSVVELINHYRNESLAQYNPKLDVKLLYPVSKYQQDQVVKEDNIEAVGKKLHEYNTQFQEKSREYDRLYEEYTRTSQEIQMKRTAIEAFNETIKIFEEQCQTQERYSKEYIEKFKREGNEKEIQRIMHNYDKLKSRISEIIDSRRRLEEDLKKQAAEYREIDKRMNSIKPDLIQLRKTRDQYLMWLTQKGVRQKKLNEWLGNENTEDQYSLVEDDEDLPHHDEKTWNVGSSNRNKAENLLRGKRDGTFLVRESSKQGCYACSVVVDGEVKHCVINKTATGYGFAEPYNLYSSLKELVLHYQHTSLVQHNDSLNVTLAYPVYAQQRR

Question: CN(C(=O)CN1CCOCC1)c1ccc2sc3c(-c4cccc5c(=O)cc(N6CC7CCC(C6)O7)oc45)cccc3c2c1 [NU5455] was tested. Which inhibition at 1 µM did it give?
Answer: 4.2%
